In patent publication US5834453A, “Methods for the manufacture and use of antimicrobial sterol conjugates” (Lehigh University, priority 1997, dated 1998):
Values after ≈ are worked out from the molar mass of the structure shown.

How the values were obtained:
S. epidermidis (12228) = experiment: MIC, micro-broth dilution; assay type: cell-based; details: Staphylococcus epidermidis, 35° C., 24 hours, read-out: ANTIMICROBIAL ACTIVITY (MIC)
Description: (§1) The antimicrobial activity of the compounds according to the present invention were compared with the results obtained for squalamine as reported in Proc. Nat. Acad. Sci. USA 90:1354 (1993), supra, the disclosure of which is incorporated in toto herein. The data reported in the following table is the minimum inhibitory concentration (MIC) required for complete inhibition of microbial growth. The MIC was determined utilizing known micro-broth dilution methods in which inocula of 10^6 /ml of the test organism were incubated in 0.5× trypticase soy broth at 35° C. for 24 hours. MIC's were also tested under various pH conditions, with calcium chloride or magnesium chloride, or with immobilized horse serum.
(§2) The numbers in parentheses contained in the table correspond to accession numbers with the American Type Culture Collection (reference strains were either obtained from the American Type Culture Collection or from the Microbiology Laboratory at Memorial Sloan-Kettering Cancer Center; Bacterial strains were maintained on Columbia 5% sheep blood agar plates, and fungi were maintained on Sabouraud Dextrose agar plates).

E. coli (25922) = experiment: MIC, micro-broth dilution; assay type: cell-based; details: Escherichia coli, 35° C., 24 hours, read-out: ANTIMICROBIAL ACTIVITY (MIC)
Description: as §1, §2

C. albicans (90028) = experiment: MIC, micro-broth dilution; assay type: cell-based; details: Candida albicans, 35° C., 24 hours, read-out: ANTIMICROBIAL ACTIVITY (MIC)
Description: as §1, §2

S. aureus (29213) = experiment: MIC, micro-broth dilution; assay type: cell-based; details: Staphylococcus aureus, 24 h, read-out: ANTIMICROBIAL ACTIVITY (MIC)
Description: as §1, §2

C. neoformans (M68979) = experiment: MIC, micro-broth dilution; assay type: cell-based; details: Cryptococcus neoformans, 24 h, read-out: ANTIMICROBIAL ACTIVITY (MIC)
Description: as §1, §2

P. vulgaris (13315) = experiment: MIC, micro-broth dilution; assay type: cell-based; details: Proteus vulgaris, 35° C., 24 hours, read-out: ANTIMICROBIAL ACTIVITY (MIC)
Description: as §1, §2

S. aureus (25923) = experiment: MIC, micro-broth dilution; assay type: cell-based; details: Staphylococcus aureus, 35° C., 24 hours, read-out: ANTIMICROBIAL ACTIVITY (MIC)
Description: as §1, §2

S. marcescens (13880) = experiment: MIC, micro-broth dilution; assay type: cell-based; details: Serratia marcescens, 24 h, read-out: ANTIMICROBIAL ACTIVITY (MIC)
Description: as §1, §2

P. aeruginosa (2853) = experiment: MIC, micro-broth dilution; assay type: cell-based; details: Pseudomonas aeruginosa, 24 h, read-out: ANTIMICROBIAL ACTIVITY (MIC)
Description: as §1, §2

[1] = Hemolytic activity, minimal hemolytic concentration (MHC); assay type: cell-based, sheep; details: for MCC at 24 h: sheep, red blood cells;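 for MCC: MCC here is the minimal hemolytic concentration (MHC)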
Description: Hemolytic activity of the squalamine mimics according to the present invention were also studied by incubating sheep red blood cells for 24 hours at 37° C. in saline (final concentration of 0.5%) with or without respective concentrations of the squalamine mimics. The minimal hemolytic concentration (MHC) was determined as the lowest concentration of a mimic that raised visible hemolysis.

K. pneumoniae (13883) = experiment: MIC, micro-broth dilution; assay type: cell-based; details: Klebsiella pneumoniae, 24 h, read-out: ANTIMICROBIAL ACTIVITY (MIC)
Description: as §1, §2

E. cloacae (13047) = experiment: MIC, micro-broth dilution; assay type: cell-based; details: Enterobacter cloacae, 35° C., 24 hours, read-out: ANTIMICROBIAL ACTIVITY (MIC)
Description: as §1, §2

A. fumigatus (H1120) = experiment: MIC, micro-broth dilution; assay type: cell-based; details: Aspergillus fumigatus, 35° C., 24 hours, read-out: ANTIMICROBIAL ACTIVITY (MIC)
Description: as §1, §2

C. neoformans (90012) = experiment: MIC, micro-broth dilution; assay type: cell-based; details: Cryptococcus neoformans, 24 h, read-out: ANTIMICROBIAL ACTIVITY (MIC)
Description: as §1, §2

S. agalactiae (13813) = experiment: MIC, micro-broth dilution; assay type: cell-based; details: Streptococcus agalactiae, 35° C., 24 hours, read-out: ANTIMICROBIAL ACTIVITY (MIC)
Description: as §1, §2

S. pneumoniae (6305) = experiment: MIC, micro-broth dilution; assay type: cell-based; details: Streptococcus pneumoniae, 35° C., 24 hours, read-out: ANTIMICROBIAL ACTIVITY (MIC)
Description: as §1, §2

P. aeruginosa (10145) = experiment: MIC, micro-broth dilution; assay type: cell-based; details: Pseudomonas aeruginosa, 35° C., 24 hours, read-out: ANTIMICROBIAL ACTIVITY (MIC)
Description: as §1, §2

E. faecium (T6480-9) = experiment: MIC, micro-broth dilution; assay type: cell-based; details: Enterococcus faecium, 35° C., 24 hours, read-out: ANTIMICROBIAL ACTIVITY (MIC)
Description: as §1, §2

S. pyrogenes (19615) = experiment: MIC, micro-broth dilution; assay type: cell-based; details: 24 h, read-out: ANTIMICROBIAL ACTIVITY (MIC)
Description: as §1, §2

A. fumigatus (H29709) = experiment: MIC, micro-broth dilution; assay type: cell-based; details: Aspergillus fumigatus, 35° C., 24 hours, read-out: ANTIMICROBIAL ACTIVITY (MIC)
Description: as §1, §2

S. aureus (H20809) = experiment: MIC, micro-broth dilution; assay type: cell-based; details: Staphylococcus aureus, 24 h, read-out: ANTIMICROBIAL ACTIVITY (MIC)
Description: as §1, §2

E. faecalis (29212) = experiment: MIC, micro-broth dilution; assay type: cell-based; details: Enterococcus faecalis, 35° C., 24 hours, read-out: ANTIMICROBIAL ACTIVITY (MIC)
Description: as §1, §2

| Structure (SMILES) | MIC (S. epidermidis (12228)) [µg/mL] | MIC (E. coli (25922)) [µg/mL] | MIC (C. albicans (90028)) [µg/mL] | MIC (S. aureus (29213)) [µg/mL] | MIC (C. neoformans (M68979)) [µg/mL] | MIC (P. vulgaris (13315)) [µg/mL] | MIC (S. aureus (25923)) [µg/mL] | MIC (S. marcescens (13880)) [µg/mL] | MIC (P. aeruginosa (2853)) [µg/mL] | MIC (K. pneumoniae (13883)) [µg/mL] | MIC (E. cloacae (13047)) [µg/mL] | MIC (A. fumigatus (H1120)) [µg/mL] | MIC (C. neoformans (90012)) [µg/mL] | MIC (S. agalactiae (13813)) [µg/mL] | MIC (S. pneumoniae (6305)) [µg/mL] | MIC (P. aeruginosa (10145)) [µg/mL] | MIC (E. faecium (T6480-9)) [µg/mL] | MIC (S. pyrogenes (19615)) [µg/mL] | MIC (A. fumigatus (H29709)) [µg/mL] | MIC (S. aureus (H20809)) [µg/mL] | further results |
| --- | --- | --- | --- | --- | --- | --- | --- | --- | --- | --- | --- | --- | --- | --- | --- | --- | --- | --- | --- | --- | --- |
| C[C@H](C(=O)NCCCNCCCCNCCCN)[C@H]1CC[C@H]2[C@@H]3CC=C4C[C@@H](O)CC[C@]4(C)[C@H]3CC[C@]12C [SM-1, 23,24-Bisnor-3β-ol-5-cholenic acid 3-ol spermine conjugate] | 1.56 (≈ 2.94 µM) | 12.5 (≈ 23.5 µM) | 100 (≈ 188 µM) | 6.25 (≈ 11.8 µM) | 6.25 (≈ 11.8 µM) | 25 (≈ 47.1 µM) | 3.13 (≈ 5.9 µM) | > 100 | 1.56 (≈ 2.94 µM) | – | – | – | – | – | – | – | – | – | – | – | minimal hemolytic concentration (MHC) at 24 h ([1]; sheep red blood cells, 24 hours at 37° C. in saline): 100 µg/mL |
| C[C@H](C(=O)NCCNCCNCCN)[C@H]1CC[C@H]2[C@@H]3CC=C4C[C@@H](O)CC[C@]4(C)[C@H]3CC[C@]12C [SM-5] | 25 (≈ 52.7 µM) | 100 (≈ 211 µM) | > 100 | 100 (≈ 211 µM) | > 100 | > 100 | 50 (≈ 105 µM) | > 100 | 25 (≈ 52.7 µM) | > 100 | > 100 | > 100 | > 100 | > 100 | > 100 | 25 (≈ 52.7 µM) | > 100 | 6.25 (≈ 13.2 µM) | > 100 | > 100 | MIC (E. faecalis (29212)): > 100 µg/mL; MCC at 24 h [1]: > 100 µg/mL |
| C[C@H](CCC(=O)NCCCNCCCCNCCCN)[C@H]1CC[C@H]2[C@@H]3CC[C@@H]4C[C@H](OS(=O)(=O)O)CC[C@]4(C)[C@H]3C[C@H](OS(=O)(=O)O)[C@]12C [SM-8] | 25 (≈ 33.9 µM) | > 100 | 100 (≈ 136 µM) | 25 (≈ 33.9 µM) | 50 (≈ 67.8 µM) | 50 (≈ 67.8 µM) | 25 (≈ 33.9 µM) | > 100 | 25 (≈ 33.9 µM) | 50 (≈ 67.8 µM) | > 100 | > 100 | 50 (≈ 67.8 µM) | 50 (≈ 67.8 µM) | 50 (≈ 67.8 µM) | 100 (≈ 136 µM) | 100 (≈ 136 µM) | 6.25 (≈ 8.48 µM) | > 100 | 25 (≈ 33.9 µM) | MIC (E. faecalis (29212)): > 100 µg/mL; MCC at 24 h [1]: > 100 µg/mL |
| C[C@H](CCCNCCCCN)[C@H]1CC[C@H]2[C@@H]3CC[C@@H]4C[C@H](O)CC[C@]4(C)[C@H]3C[C@H](O)[C@]12C [SM-9H] | 1.56 (≈ 3.48 µM) | 25 (≈ 55.7 µM) | 3.13 (≈ 6.98 µM) | 1.56 (≈ 3.48 µM) | 0.78 (≈ 1.74 µM) | 12.5 (≈ 27.9 µM) | 1.56 (≈ 3.48 µM) | > 100 | 6.25 (≈ 13.9 µM) | 50 (≈ 111 µM) | 100 (≈ 223 µM) | 12.5 (≈ 27.9 µM) | 0.78 (≈ 1.74 µM) | 3.13 (≈ 6.98 µM) | 6.25 (≈ 13.9 µM) | 12.5 (≈ 27.9 µM) | 25 (≈ 55.7 µM) | 0.78 (≈ 1.74 µM) | 6.25 (≈ 13.9 µM) | 3.13 (≈ 6.98 µM) | MIC (E. faecalis (29212)): 6.25 µg/mL (≈ 13.9 µM); MCC at 24 h [1]: 50 µg/mL |
